# According to ChEMBL document CHEMBL4033723, “Succinamide derivatives of melampomagnolide B and their anti-cancer activities” (2017):
# Legend:
# Assay type in all cases: functional
# [1] = tested on: CCRF-CEM; test: Growth inhibition of human CCRF-CEM cells after 48 hrs by sulforhodamine B assay
# [2] = tested on: HL-60(TB); test: Growth inhibition of human HL-60(TB) cells after 48 hrs by sulforhodamine B assay; conditions: HL-60, 48 h
# [3] = tested on: K562; test: Growth inhibition of human K562 cells after 48 hrs by sulforhodamine B assay; conditions: K562, 48 h
# [4] = tested on: MOLT-4; test: Growth inhibition of human MOLT4 cells after 48 hrs by sulforhodamine B assay; conditions: MOLT-4, 48 h
# [5] = tested on: RPMI-8226; test: Growth inhibition of human RPMI8226 cells after 48 hrs by sulforhodamine B assay; conditions: RPMI-8226, 48 h
# [6] = tested on: SR; test: Growth inhibition of human SR cells after 48 hrs by sulforhodamine B assay
# [7] = tested on: A549; test: Growth inhibition of human A549/ATCC cells after 48 hrs by sulforhodamine B assay; conditions: A549, 48 h
# [8] = tested on: HOP-92; test: Growth inhibition of human HOP92 cells after 48 hrs by sulforhodamine B assay; conditions: HOP-92, 48 h
# [9] = tested on: NCI-H226; test: Growth inhibition of human NCI-H226 cells after 48 hrs by sulforhodamine B assay; conditions: NCI-H226, 48 h
# [10] = tested on: NCI-H23; test: Growth inhibition of human NCI-H23 cells after 48 hrs by sulforhodamine B assay; conditions: NCI-H23, 48 h
# [11] = tested on: NCI-H322M; test: Growth inhibition of human NCI-H322M cells after 48 hrs by sulforhodamine B assay
# [12] = tested on: NCI-H460; test: Growth inhibition of human NCI-H460 cells after 48 hrs by sulforhodamine B assay; conditions: NCI-H460, 48 h
# [13] = tested on: NCI-H522; test: Growth inhibition of human NCI-H522 cells after 48 hrs by sulforhodamine B assay; conditions: NCI-H522, 48 h
# [14] = tested on: COLO 205; test: Growth inhibition of human COLO205 cells after 48 hrs by sulforhodamine B assay; conditions: COLO 205, 48 h
# [15] = tested on: HCC 2998; test: Growth inhibition of human HCC2998 cells after 48 hrs by sulforhodamine B assay; conditions: HCC 2998, 48 h
# [16] = tested on: HCT-116; test: Growth inhibition of human HCT116 cells after 48 hrs by sulforhodamine B assay; conditions: HCT-116, 48 h
# [17] = tested on: HCT-15; test: Growth inhibition of human HCT15 cells after 48 hrs by sulforhodamine B assay; conditions: HCT-15, 48 h
# [18] = tested on: HT-29; test: Growth inhibition of human HT-29 cells after 48 hrs by sulforhodamine B assay; conditions: HT-29, 48 h
# [19] = tested on: KM12; test: Growth inhibition of human KM12 cells after 48 hrs by sulforhodamine B assay; conditions: KM12, 48 h
# [20] = tested on: SW-620; test: Growth inhibition of human SW620 cells after 48 hrs by sulforhodamine B assay; conditions: SW-620, 48 h
# [21] = tested on: SF-268; test: Growth inhibition of human SF268 cells after 48 hrs by sulforhodamine B assay; conditions: SF-268, 48 h
# [22] = tested on: SF-295; test: Growth inhibition of human SF295 cells after 48 hrs by sulforhodamine B assay; conditions: SF-295, 48 h
# [23] = tested on: SF-539; test: Growth inhibition of human SF539 cells after 48 hrs by sulforhodamine B assay; conditions: SF-539, 48 h
# [24] = tested on: SNB-19; test: Growth inhibition of human SNB19 cells after 48 hrs by sulforhodamine B assay; conditions: SNB-19, 48 h
# [25] = tested on: SNB-75; test: Growth inhibition of human SNB75 cells after 48 hrs by sulforhodamine B assay; conditions: SNB-75, 48 h
# [26] = tested on: U-251; test: Growth inhibition of human U251 cells after 48 hrs by sulforhodamine B assay; conditions: U-251, 48 h
# [27] = tested on: LOX IMVI; test: Growth inhibition of human LOXIMVI cells after 48 hrs by sulforhodamine B assay
# [28] = tested on: Malme-3M; test: Growth inhibition of human MALME-3M cells after 48 hrs by sulforhodamine B assay
# [29] = tested on: M14; test: Growth inhibition of human M14 cells after 48 hrs by sulforhodamine B assay; conditions: M14, 48 h
# [30] = tested on: MDA-MB-435; test: Growth inhibition of human MDA-MB-435 cells after 48 hrs by sulforhodamine B assay; conditions: MDA-MB-435, 48 h
# [31] = tested on: SK-MEL-2; test: Growth inhibition of human SK-MEL-2 cells after 48 hrs by sulforhodamine B assay; conditions: SK-MEL-2, 48 h
# [32] = tested on: SK-MEL-28; test: Growth inhibition of human SK-MEL-28 cells after 48 hrs by sulforhodamine B assay; conditions: SK-MEL-28, 48 h
# [33] = tested on: SK-MEL-5; test: Growth inhibition of human SK-MEL-5 cells after 48 hrs by sulforhodamine B assay; conditions: SK-MEL-5, 48 h
# [34] = tested on: UACC-257; test: Growth inhibition of human UACC257 cells after 48 hrs by sulforhodamine B assay; conditions: UACC-257, 48 h
# [35] = tested on: UACC-62; test: Growth inhibition of human UACC62 cells after 48 hrs by sulforhodamine B assay; conditions: UACC-62, 48 h
# [36] = tested on: OVCAR-3; test: Growth inhibition of human OVCAR3 cells after 48 hrs by sulforhodamine B assay; conditions: OVCAR-3, 48 h
# [37] = tested on: OVCAR-4; test: Growth inhibition of human OVCAR4 cells after 48 hrs by sulforhodamine B assay; conditions: OVCAR-4, 48 h
# [38] = tested on: OVCAR-5; test: Growth inhibition of human OVCAR5 cells after 48 hrs by sulforhodamine B assay; conditions: OVCAR-5, 48 h
# [39] = tested on: OVCAR-8; test: Growth inhibition of human OVCAR8 cells after 48 hrs by sulforhodamine B assay; conditions: OVCAR-8, 48 h
# [40] = tested on: NCI/ADR-RES; test: Growth inhibition of human NCI-ADR-RES cells after 48 hrs by sulforhodamine B assay
# [41] = tested on: SK-OV-3; test: Growth inhibition of human SKOV3 cells after 48 hrs by sulforhodamine B assay; conditions: SK-OV-3, 48 h
# [42] = tested on: 786-0; test: Growth inhibition of human 786-0 cells after 48 hrs by sulforhodamine B assay; conditions: 786-0, 48 h
# [43] = tested on: A498; test: Growth inhibition of human A498 cells after 48 hrs by sulforhodamine B assay; conditions: A498, 48 h
# [44] = tested on: ACHN; test: Growth inhibition of human ACHN cells after 48 hrs by sulforhodamine B assay
# [45] = tested on: CAKI-1; test: Growth inhibition of human Caki1 cells after 48 hrs by sulforhodamine B assay; conditions: CAKI-1, 48 h
# [46] = tested on: RXF 393; test: Growth inhibition of human RXF393 cells after 48 hrs by sulforhodamine B assay; conditions: RXF 393, 48 h
# [47] = tested on: SN12C; test: Growth inhibition of human SN12C cells after 48 hrs by sulforhodamine B assay
# [48] = tested on: TK-10; test: Growth inhibition of human TK10 cells after 48 hrs by sulforhodamine B assay; conditions: TK-10, 48 h
# [49] = tested on: UO-31; test: Growth inhibition of human UO31 cells after 48 hrs by sulforhodamine B assay; conditions: UO-31, 48 h
# [50] = tested on: PC-3; test: Growth inhibition of human PC3 cells after 48 hrs by sulforhodamine B assay; conditions: PC-3, 48 h
# [51] = tested on: DU-145; test: Growth inhibition of human DU145 cells after 48 hrs by sulforhodamine B assay; conditions: DU-145, 48 h
# [52] = tested on: MCF7; test: Growth inhibition of human MCF7 cells after 48 hrs by sulforhodamine B assay; conditions: MCF7, 48 h
# [53] = tested on: MDA-MB-231; test: Growth inhibition of human MDA-MB-231 cells after 48 hrs by sulforhodamine B assay; conditions: MDA-MB-231, 48 h
# [54] = tested on: Hs-578T; test: Growth inhibition of human Hs 578T cells after 48 hrs by sulforhodamine B assay
# [55] = tested on: BT-549; test: Growth inhibition of human BT549 cells after 48 hrs by sulforhodamine B assay; conditions: BT-549, 48 h
# [56] = tested on: T47D; test: Growth inhibition of human T47D cells after 48 hrs by sulforhodamine B assay
# [57] = tested on: MDA-MB-468; test: Growth inhibition of human MDA-MB-468 cells after 48 hrs by sulforhodamine B assay; conditions: MDA-MB-468, 48 h
# [58] = Growth inhibition of human M9-ENL1 cells after 24 hrs by trypan blue assay; conditions: M9-ENL1, 24 h
# [59] = Induction of apoptosis in human M9-ENL1 cells assessed as cell death after 24 hrs by Annexin V/PI or 7-AAD staining based flow cytometry; conditions: M9-ENL1, 24 h, read-out: LC50 (the source's name)
# [60] = Potency index, ratio of compound effect to PTL effect for cytotoxicity against human M9-ENL1 cells
smiles,measurement,setting,value
C=C1C(=O)O[C@H]2[C@H]1CC/C(COC(=O)CCC(=O)N1CCC(C)CC1)=C\CC[C@@]1(C)O[C@@H]21,GI50,[1],1.4 µM
same,GI50,[2],3.16 µM
same,GI50,[3],3.06 µM
same,GI50,[4],3.33 µM
same,GI50,[5],4.74 µM
same,GI50,[6],2.72 µM
same,GI50,[7],15.8 µM
same,GI50,[8],2.05 µM
same,GI50,[9],3.51 µM
same,GI50,[10],5.24 µM
same,GI50,[11],17.6 µM
same,GI50,[12],16 µM
same,GI50,[13],1.5 µM
same,GI50,[14],2.94 µM
same,GI50,[15],11.5 µM
same,GI50,[16],1.69 µM
same,GI50,[17],1.7 µM
same,GI50,[18],4.28 µM
same,GI50,[19],12.1 µM
same,GI50,[20],2.33 µM
same,GI50,[21],13.2 µM
same,GI50,[22],14.7 µM
same,GI50,[23],2.35 µM
same,GI50,[24],14 µM
same,GI50,[25],11.2 µM
same,GI50,[26],16.7 µM
same,GI50,[27],2.95 µM
same,GI50,[28],2.95 µM
same,GI50,[29],3.44 µM
same,GI50,[30],4.84 µM
same,GI50,[31],13.1 µM
same,GI50,[32],3.1 µM
same,GI50,[33],7.17 µM
same,GI50,[34],3.57 µM
same,GI50,[35],5.15 µM
same,GI50,[36],4.32 µM
same,GI50,[37],2.64 µM
same,GI50,[38],6.36 µM
same,GI50,[39],3.37 µM
same,GI50,[40],13.1 µM
same,GI50,[41],26.8 µM
same,GI50,[42],6.64 µM
same,GI50,[43],2.77 µM
same,GI50,[44],2.64 µM
same,GI50,[45],2.83 µM
same,GI50,[46],1.91 µM
same,GI50,[47],4.8 µM
same,GI50,[48],3.9 µM
same,GI50,[49],3.56 µM
same,GI50,[50],13 µM
same,GI50,[51],4.44 µM
same,GI50,[52],2.22 µM
same,GI50,[53],7.13 µM
same,GI50,[54],20.4 µM
same,GI50,[55],1.82 µM
same,GI50,[56],5.45 µM
same,GI50,[57],1.06 µM
same,GI50,[58],3.1 µM
same,CC50,[59],4.1 µM
same,fold change (FC),[60],2
